Read-outs that look alike come from different tables or passages of the source.
Assays:
corn rust = assay: Fungicidal activity in vivo, corn rust; settings: 25 mg/L, plants sprayed, scored after 1 week
Experimental: (§1) Determination of Fungicidal Activity In Vivo:
(§2) Compounds were disolved into acetone to receive stock solution. Deionized water containing 0.1% Tween 80 was added in the previous solution to receive 20 ml test solution. Plants are sprayed by using a turntable sprayer. After 24 hours, plants were innoculated with a conidial suspension. Plants were then transferred into a dew chamber [R.H. (relative humidity)>95%] for infection. After this treatment, plants were removed from the chamber to the greenhouse for normal maintaining, After the infection period, the plants were placed in the greenhouse. After 1 week, the plants were scored for disease control.

cucumber anthracnose = assay: Fungicidal activity in vivo, cucumber anthracnose; settings: plants sprayed, scored after 1 week
Experimental: as §1, §2

rice blast = format: cell-based; settings: in vitro, 24 hours incubation
tomato late blight = format: cell-based; settings: in vitro, 25 mg/L, 24 hours incubation
cucumber downy mildew = assay: Fungicidal activity in vivo, cucumber downy mildew; settings: plants sprayed, scored after 1 week
Experimental: as §1, §2

[1] = test system: mite (Tetranychus cinnabarinus); assay: Acaricidal activity, airbrush spray, mite; settings: mortality after 2-3 days
Experimental: Compounds were dissolved in mixed solvent (acetone: methanol=1:1), and diluted to required concentration with water containing 0.1% of Tween 80.
The second instar larvae of armyworm (Spodoptera exigua), diamond backmoth (Plutella xylostella), green peach aphids (Myzus persicae) and mite (Tetranychus cinnabarinus) were used in biological test. The method was employed either spraying by airbrush. A test solution (0.5 ml) was sprayed at the pressure of 0.7 kg/cm^2. Percent mortality was determined after 2-3 days.

[2] = test system: nymph of carmine spider mite; assay: Control on nymph of carmine spider mite; format: in vivo
carmine spider mite eggs = assay: Inhibition activity on carmine spider mite eggs; format: in vivo
[3] = test system: diamond backmoth (Plutella xylostella); assay: Insecticidal activity, airbrush spray, diamond backmoth; format: in vivo; settings: 600 mg/L, mortality after 2-3 days
[4] = test system: armyworm (Spodoptera exigua); assay: Insecticidal activity, airbrush spray, armyworm; format: in vivo; settings: 600 mg/L, mortality after 2-3 days
cucumber grey mold = assay: Fungicidal activity in vitro, cucumber grey mold; format: cell-based; settings: 2.8 mg/L, 24 hours incubation
wheat powdery mildew = assay: Fungicidal activity in vivo, wheat powdery mildew; settings: plants sprayed, scored after 1 week
Experimental: as §1, §2

COC=C(C(=O)OC)c1ccccc1COc1cc(C)nc(Nc2ccccc2)n1 [Compound 19]
control of corn rust (corn rust): 100% | control of cucumber anthracnose (cucumber anthracnose; 25 mg/L): 100% | control of cucumber anthracnose (cucumber anthracnose; 400 mg/L): 100% | control of rice blast (rice blast; 2.8 mg/L): 100% | control of rice blast (rice blast; 8.3 mg/L): 100% | control of rice blast (rice blast; 25 mg/L): 100% | control of tomato late blight (tomato late blight): 100% | control of cucumber downy mildew (cucumber downy mildew; 25 mg/L): 100% | control of cucumber downy mildew (cucumber downy mildew; 400 mg/L): 100%

COC=C(C(=O)OC)c1ccccc1COc1cc(C(F)(F)F)nc(Nc2ccccc2)n1 [Compound 20]
control of mite ([1]; 150 mg/L): 100% | control of mite ([1]; 600 mg/L): 100% | control of cucumber anthracnose (cucumber anthracnose; 25 mg/L): 100% | control of cucumber anthracnose (cucumber anthracnose; 400 mg/L): 100% | control of rice blast (rice blast; 2.8 mg/L): 100% | control of rice blast (rice blast; 8.3 mg/L): 100% | control of rice blast (rice blast; 25 mg/L): 100% | control of tomato late blight (tomato late blight): 100% | control of cucumber downy mildew (cucumber downy mildew; 400 mg/L): 100% | control on nymph of carmine spider mite ([2]; 10 mg/L): 90% | control on nymph of carmine spider mite ([2]; 20 mg/L): 100% | inhibition activity on carmine spider mite eggs (carmine spider mite eggs; 5 mg/L): 80% | inhibition activity on carmine spider mite eggs (carmine spider mite eggs; 10 mg/L): 100%

COC=C(C(=O)OC)c1ccccc1COc1cc(C2CC2)nc(Nc2ccccc2)n1 [Compound 25]
control of corn rust (corn rust): 100% | control of mite ([1]; 600 mg/L): 100% | control of cucumber anthracnose (cucumber anthracnose; 25 mg/L): 100% | control of cucumber anthracnose (cucumber anthracnose; 400 mg/L): 100% | control of rice blast (rice blast; 8.3 mg/L): about 80% | control of rice blast (rice blast; 25 mg/L): 100% | control of diamond backmoth [3]: 100% | control of tomato late blight (tomato late blight): 100% | control of cucumber downy mildew (cucumber downy mildew; 25 mg/L): 100% | control of cucumber downy mildew (cucumber downy mildew; 400 mg/L): 100%

COC=C(C(=O)OC)c1ccccc1COc1nc(Nc2ccccc2)nc(C)c1C [Compound 41]
control of corn rust (corn rust): 100% | control of cucumber anthracnose (cucumber anthracnose; 25 mg/L): 100% | control of cucumber anthracnose (cucumber anthracnose; 400 mg/L): 100% | control of rice blast (rice blast; 2.8 mg/L): about 80% | control of rice blast (rice blast; 8.3 mg/L): about 80% | control of rice blast (rice blast; 25 mg/L): 100% | control of tomato late blight (tomato late blight): 100% | control of cucumber downy mildew (cucumber downy mildew; 25 mg/L): 100% | control of cucumber downy mildew (cucumber downy mildew; 400 mg/L): 100%

CO/N=C(/C(=O)OC)c1ccccc1COc1cc(C(F)(F)F)nc(Nc2ccccc2)n1 [Compound 229]
control of mite ([1]; 600 mg/L): 100% | control of rice blast (rice blast; 8.3 mg/L): about 80% | control of tomato late blight (tomato late blight): 100% | control of armyworm [4]: 100% | control of cucumber downy mildew (cucumber downy mildew; 400 mg/L): 100%

CON=C(C(=O)OC)c1ccccc1COc1cc(C2CC2)nc(Nc2ccccc2)n1 [Compound 232]
control of cucumber anthracnose (cucumber anthracnose; 400 mg/L): 100% | control of rice blast (rice blast; 8.3 mg/L): about 80% | control of rice blast (rice blast; 25 mg/L): 100% | control of tomato late blight (tomato late blight): 100% | control of cucumber downy mildew (cucumber downy mildew; 400 mg/L): 100%

COC(=O)N(OC)c1ccccc1COc1cc(C(F)(F)F)nc(Nc2ccccc2)n1 [Compound 424]
control of cucumber anthracnose (cucumber anthracnose; 400 mg/L): 100% | control of tomato late blight (tomato late blight): 100% | control of armyworm [4]: 100% | control of cucumber downy mildew (cucumber downy mildew; 400 mg/L): 100%

CNC(=O)N(OC)c1ccccc1COc1cc(Br)nc(Nc2ccccc2)n1 [Compound 475]
control of rice blast (rice blast; 8.3 mg/L): about 80% | control of rice blast (rice blast; 25 mg/L): 100% | control of armyworm [4]: 100%

COC(=O)N(OC)c1ccccc1COc1cc(C2CC2)nc(Nc2ccccc2)n1 [Compound 664]
control of rice blast (rice blast; 8.3 mg/L): about 80% | control of rice blast (rice blast; 25 mg/L): 100% | control of tomato late blight (tomato late blight): 100% | control of cucumber downy mildew (cucumber downy mildew; 400 mg/L): 100%

CNC(=O)C(=NOC)c1ccccc1COc1cc(C2CC2)nc(Nc2ccccc2)n1 [Compound 665]
control of corn rust (corn rust): 100% | control of cucumber anthracnose (cucumber anthracnose; 25 mg/L): 100% | control of rice blast (rice blast; 8.3 mg/L): about 80%

CNC(=O)N(OC)c1ccccc1COc1cc(C2CC2)nc(Nc2ccccc2)n1 [Compound 666]
control of rice blast (rice blast; 8.3 mg/L): 100%

CON=C(C(=O)OC)c1ccccc1COc1nc(Nc2ccccc2)nc(C)c1C [Compound 667]
control of cucumber anthracnose (cucumber anthracnose; 400 mg/L): 100% | control of rice blast (rice blast; 2.8 mg/L): about 80% | control of rice blast (rice blast; 8.3 mg/L): 100% | control of rice blast (rice blast; 25 mg/L): 100% | control of diamond backmoth [3]: 100% | control of cucumber grey mold (cucumber grey mold): about 50% | control of tomato late blight (tomato late blight): 100% | control of cucumber downy mildew (cucumber downy mildew; 400 mg/L): 100%

COC(=O)N(OC)c1ccccc1COc1nc(Nc2ccccc2)nc(C)c1C [Compound 668]
control of cucumber anthracnose (cucumber anthracnose; 400 mg/L): 100% | control of rice blast (rice blast; 8.3 mg/L): about 80% | control of rice blast (rice blast; 25 mg/L): 100% | control of tomato late blight (tomato late blight): 100% | control of cucumber downy mildew (cucumber downy mildew; 400 mg/L): 100%

CNC(=O)C(=NOC)c1ccccc1COc1nc(Nc2ccccc2)nc(C)c1C [Compound 669]
control of corn rust (corn rust): 100% | control of cucumber anthracnose (cucumber anthracnose; 25 mg/L): 100%

CNC(=O)N(OC)c1ccccc1COc1nc(Nc2ccccc2)nc(C)c1C [Compound 670]
control of cucumber anthracnose (cucumber anthracnose; 25 mg/L): 100% | control of rice blast (rice blast; 8.3 mg/L): about 80%

CON=C(C(=O)OC)c1ccccc1COc1cc(C)nc(Nc2ccccc2)n1 [Compound 676]
control of rice blast (rice blast; 2.8 mg/L): about 80% | control of rice blast (rice blast; 8.3 mg/L): 100%

COC(=O)N(OC)c1ccccc1COc1cc(C)nc(Nc2ccccc2)n1 [Compound 677]
control of cucumber anthracnose (cucumber anthracnose; 25 mg/L): 100% | control of rice blast (rice blast; 8.3 mg/L): 100%

CNC(=O)C(=NOC)c1ccccc1COc1cc(C)nc(Nc2ccccc2)n1 [Compound 678]
control of cucumber anthracnose (cucumber anthracnose; 25 mg/L): 100%

COC=C(C(=O)OC)c1ccccc1COc1cc(C(F)(F)F)nc(N(C)C)n1 [Compound 680]
control of wheat powdery mildew (wheat powdery mildew; 25 mg/L): 98% | control of wheat powdery mildew (wheat powdery mildew; 400 mg/L): 100%

COC=C(C(=O)OC)c1ccccc1COc1cc(C(F)(F)F)nc(NC(C)C)n1 [Compound 682]
control of mite ([1]; 600 mg/L): 100%

COC=C(C(=O)OC)c1ccccc1COc1cc(C(F)(F)F)nc(Nc2cccnc2Cl)n1 [Compound 691]
control of mite ([1]; 40 mg/L): 100% | control of mite ([1]; 600 mg/L): 100%

COC=C(C(=O)OC)c1ccccc1COc1cc(C(F)(F)F)nc(Nc2ccc(C)cc2C)n1 [Compound 693]
control of mite ([1]; 600 mg/L): 100%

COC=C(C(=O)OC)c1ccccc1COc1cc(C(F)(F)F)nc(Nc2cccc(Cl)c2Cl)n1 [Compound 694]
control of mite ([1]; 40 mg/L): 100% | control of mite ([1]; 600 mg/L): 100%

COC=C(C(=O)OC)c1ccccc1COc1cc(C(F)(F)F)nc(Nc2ccc(C)c(C)c2)n1 [Compound 697]
control of mite ([1]; 600 mg/L): 100%

COC=C(C(=O)OC)c1ccccc1COc1cc(C(F)(F)F)nc(NC2CCCCC2)n1 [Compound 701]
control of mite ([1]; 40 mg/L): 100%

— patent US8383640B2, “Substituted pyrimidine ether compounds and use thereof” (priority 2007, dated 2013)
